Results: patent publication US20200061215A1, “MALTOTRIOSE-BASED PROBES FOR FLUORESCENCE AND PHOTOACOUSTIC IMAGING OF BACTERIA” (The Board of Trustees of the Leland Stanford Junior …, priority 2018, published 2020)

Columns and labels:
[1] = tested on: E. coli; assay: Bacteria competition assay with 3H-maltose; type: cell-based; conditions: test compound 1 mM, 1 hr at 37° C., then 3H-maltose 30 min
Protocol: A competition binding assay between the synthesized derivatives and ^3H-maltose that is taken up in bacteria by the ABC transporter, was conducted.
Aliquots of 10^8 colony forming units (CFU) of E. coli were first incubated with test compounds (1 mM) for 1 hr at 37° C. After the first incubation, the bacteria culture was centrifuged at 10,000 rpm for 5 min and pellet washed with 1×HBSS three times. Pellets were suspended in a solution of ^3H-maltose (1 μCi in 200 μL HBSS (1×); American Radiolabeled Chemicals, Inc., USA) and incubated for 30 min at 37° C. Aliquots were centrifuged and washed with 1×HBSS three times before lysing in a bacterial lysis buffer (BugBuster, EMD, Billerica Mass. USA). Activity in bacteria lysates was then counted in a […] and protein concentration determined using a bicinchoninic acid (BCA) assay (Pierce, Thermo Fisher Scientific). Test compounds included maltose as a positive control, azide-1-maltotriose/maltohexose and Cy7-1-maltotriose/maltohexose. In addition, aliquots incubated with only ^3H-maltose were also included to assess normal uptake. Results are shown as counts per minute (cpm) normalized to protein content (μg of protein) per sample (n=3 per study).

[2] = tested on: S. aureus-infected wound; assay: Fluorescence and bioluminescence imaging in S. aureus wound-infection murine model; type: in vivo, mice; conditions: treated group, vancomycin for 7 days
Protocol: Female CD1 or SKH1 elite mice, 6-8 weeks old were anesthetized by isoflurane inhalation (2-3%). A small wound on the upper or lower back of the mice was formed using a sharp pair of scissors. 10^8 CFU, 10^6 CFU, or 10^4 CFU Staphylococcus aureus in 20 μL saline was inoculated into a small pocket subcutaneously before sealing the wound with Vetbond adhesive (1469SB; 3M).
After subcutaneous inoculation of 10^8 CFU (n=5), 10^6 CFU (n=3) and 10^4 CFU (n=3) of S. aureus in the wound, Cy7-1-maltotriose (5 nmol in 2% DMSO/saline, 100 μL injection) was injected via the tail vein. To insure no other infections occur, a daily dose of kanamycin (800 mg/kg) was given to the mice intramuscularly. Fluorescence and bioluminescence images were then captured at 5 and 20 hr post injection of the probe. Image analysis was conducted using Living Image® software.
Fluorescence and Bioluminescence Imaging: After subcutaneous inoculation of 10^6 CFU (n=9) of kanamycin-resistant S. aureus in the wound, mice were administered kanamycin (800 mg/kg) intramuscularly once daily to insure no other bacterial infections occur. Two days after surgery, Cy7-1-maltotriose (10 nmol in 2% DMSO/saline, 200 μL injection) was injected via the tail vein and bioluminescence and fluorescence imaging were performed at 19, 45, 69, 93 and 144 hrs post injection. […]

[3] = Stability in PBS; type: physicochemical; conditions: 37° C., up to 24 hr
Protocol: Compound 3a or 3b (100 μM) was incubated in either PBS (1×), murine, human, or rat plasma at 37° C. for up to 24 h. At each time point (0, 2, 4, 10 and 24 h), a 100 μL aliquot of the mixture was taken and added to an ice-cold acetonitrile solution (200 μL) and vortexed for 10 seconds. Samples were then centrifuged and the supernatant analyzed on the analytical HPLC column (HPLC method). […] Monitoring was at 750 nm and the area of any observed peak was assessed in each HPLC chromatogram. Bar plot representation of the compound stability is shown as % intact where

[4] = Plasma stability, human plasma; type: in vitro ADME; conditions: 37° C.
Protocol: Samples were then centrifuged and the supernatant analyzed on the analytical HPLC column (HPLC method). […] Monitoring was at 750 nm and the area of any observed peak was assessed in each HPLC chromatogram.

Row | Molecule | 3H-maltose uptake in E. coli when pre-incubated with test compound [1] | S. aureus infection in wound after treatment (FLI image, confirmed by BLI) [2] | stability in PBS [3] | degradation in human plasma [4]
1 | OC[C@H]1O[C@H](O[C@H]2[C@H](O)[C@@H](O)C(O)O[C@@H]2CO)[C@H](O)[C@@H](O)[C@@H]1O (mixture of isomers) [maltose] | significant reduction |  |  | 
2 | CN[C@H](CC(C)C)C(=O)N[C@H]1C(=O)N[C@@H](CC(N)=O)C(=O)N[C@H]2C(=O)N[C@H]3C(=O)N[C@H](C(=O)N[C@H](C(=O)O)c4cc(O)cc(O)c4-c4cc3ccc4O)[C@H](O)c3ccc(c(Cl)c3)Oc3cc2cc(c3O[C@@H]2O[C@H](CO)[C@@H](O)[C@H](O)[C@H]2O[C@H]2C[C@](C)(N)[C@H](O)[C@H](C)O2)Oc2ccc(cc2Cl)[C@H]1O [vancomycin] |  | complete disappearance of S. aureus infection |  | 
3 | OC[C@H]1O[C@H](O[C@H]2[C@H](O)[C@@H](O)[C@@H](O[C@H]3[C@H](O)[C@@H](O)[C@@H](O[C@H]4[C@H](O)[C@@H](O)[C@@H](O[C@H]5[C@H](O)[C@@H](O)[C@@H](O[C@H]6[C@H](O)[C@@H](O)C(O)O[C@@H]6CO)O[C@@H]5CO)O[C@@H]4CO)O[C@@H]3CO)O[C@@H]2CO)[C@H](O)[C@@H](O)[C@@H]1O (stereo partly shown) [maltohexose] | significant reduction |  | stable | 
4 | maltotriose | significant reduction |  | stable | no degradation
